Tests used:
[1] = (§1) MMV: Anti-babesial activity assay. Parasite pRBCs at 1% parasitemia were cultivated in 100 ul with 96-well plates at 2.5% and 5% hematocrits. The parasites were cultivated in triplicate for 4 days without replacement of the medium for each concentration of the compound.; type: functional, Babesia caballi
[2] = as §1; type: functional, Babesia equi
[3] = as §1; type: functional, Babesia bigemina
[4] = as §1; type: functional, Babesia bovis

Row | Compound | IC50 [1] [µM] | IC50 [2] [µM] | IC50 [3] [µM] | IC50 [4] [µM]
1 | CC(C)OCc1cc(CN2CCN(c3cccc(Cl)c3)CC2)c(O)c2ncccc12 | 0.073 | 1 | 0.92 | 0.59
2 | O=C(Nc1ccc(CN2CCOCC2)cc1)c1ccc(-c2cc(Cl)ccc2Cl)o1 | 0.069 | 10 | 10 | 25
3 | CCOC(=O)C1=C(C)N=c2sc(=Cc3cc(Cl)ccc3O)c(=O)n2C1c1ccc(OC)cc1 (stereo not drawn) | 15.9 | 14.6 | 14.1 | 18.1
4 | COc1ccc(Nc2cc(C)nc(NCc3ccccc3)n2)cc1 | 14.6 | 15.2 | 0.067 | 0.054
5 | Oc1ccc(-c2nc(-c3ccc4oc5ccc(-c6[nH]c(-c7ccc(O)cc7)nc6-c6ccccc6)cc5c4c3)c(-c3ccccc3)[nH]2)cc1 | 10 | 0.1 | 1.39 | 0.059
6 | COC(=O)c1ccc(Cl)c2c1C1C=CCC1C(c1cccc3ccccc13)N2 (stereo not drawn) | 12 | 17.8 | 10 | 15.7
7 | Brc1ccc(Nc2nc3ccccc3nc2Nc2ccc(Br)cc2)cc1 | 5.09 | 4.53 | 3.73 | 2.09
8 | COc1ccc(C(=O)NC(c2ccc(Cl)cc2Cl)c2cc(Cl)c3cccnc3c2O)cc1 (stereo not drawn) | 4.68 | 1.39 | 3.05 | 0.86
9 | CC1CCN(Cc2c(O)ccc3cc(-c4nc5ccccc5s4)c(=O)oc23)CC1 | 3.73 | 4.27 | 5.5 | 6.9
10 | OC(CNCc1ccccc1)Cn1c2ccccc2c2ccccc21 (stereo not drawn) | 3.9 | 4.19 | 18 | 3.25
11 | c1ccc(/C2=N/c3ccccc3/N=C(/c3ccccc3)c3ccccc32)cc1 | 4.91 | 15.2 | 10 | 17.7
12 | O=C(Nc1cccc(C(F)(F)F)c1)c1cc(Cl)ccc1O | 5.21 | 5.1 | 3.71 | 0.82
13 | C=CC12CCN(CC1)C(C(O)c1ccnc3ccc(OC)cc13)C2 (stereo not drawn) | 13.1 | 3.21 | 14.4 | 17.3
14 | O=C(NCc1ccco1)C1CCN(S(=O)(=O)c2ccc(Br)cc2)CC1 | > 25 | 14.3 | > 25 | 17
15 | COC(=O)c1ccc(C2C3=C(O)CC(c4ccc(F)cc4)CC3=Nc3ccccc3N2C(=O)c2ccccc2)cc1 (stereo not drawn) | 6.86 | 10.4 | 0.086 | 0.063
16 | CCOc1ccc(-c2nonc2NC(=O)c2cccc(C)c2)cc1OCC | 17.5 | 18.5 | 13.1 | 19.9
17 | Cc1ccc(-c2nc3ccccc3o2)cc1NCc1cc(Cc2ccccc2)ccc1O | 1.05 | 9.67 | 1 | 7.13
18 | CCCCNc1nc(NC(C)(C)C)nc(NC(C)(C)C)n1 | 0.672 | 0.25 | 1 | 0.65
19 | COc1cc(OC)cc(N2C(=O)N(Cc3ccc(C(C)(C)C)cc3)c3ccccc3S2(=O)=O)c1 | 7.54 | 13.3 | 0.19 | 1
20 | CCOc1ccccc1NC(=O)CN1CCN(C(=O)c2ccco2)CC1 | 3.81 | 10.3 | 17.5 | 25
21 | COc1ccc(-c2nc(NC(=O)CS(=O)(=O)c3ccc(F)cc3)sc2C)cc1 | 14.6 | 13.4 | 17 | 17.9

Row | Compound | IC50 [1] [µM] | IC50 [2] [µM] | IC50 [3] [µM] | IC50 [4] [µM]
22 | CCOc1ccc(Nc2ccnc3cc(Cl)ccc23)cc1 | 10 | 15.9 | 0.068 | 0.056
23 | COc1ccc(Nc2nc(N/N=C/c3ccc(O)cc3)nc(Nc3ccc([N+](=O)[O-])cc3)n2)cc1 | 5.09 | 15.9 | 0.05 | 0.081
24 | CCC(C)NCC(O)(c1ccc(Cl)cc1)c1ccc(Cl)cc1 (stereo not drawn) | 2.96 | 7.67 | 1.9 | 25
25 | CCN(CC)CCCNc1nc(-c2ccc(Cl)cc2)nc2ccccc12 | 5.93 | 0.25 | 2.16 | 0.73
26 | CN(C)CCCNCc1ccc(-c2ccc(F)c(Cl)c2)o1 | 0.69 | 4.09 | 4.61 | 2.45
27 | Cc1ccc2cc3c(N)c4c(C)ccc(C)c4nc3nc2c1 | 7.26 | 4.52 | 4.27 | 2.63
28 | COc1cc(-c2nc(-c3ccc(Sc4ccccc4)cc3)c(-c3ccccc3)[nH]2)cc(OC)c1O | 3.45 | 12 | 16.5 | 7.54
29 | CCOC(=O)c1cnc2ccc(OC)cc2c1Nc1ccc(N2CCN(C)CC2)cc1 | 8.25 | 10 | 1 | 0.061
30 | COc1ccc2nc(N)nc(C)c2c1 | 4.19 | 3.03 | 15.6 | 7.23
31 | CCCCN(CCCC)S(=O)(=O)c1ccc(NC(=O)c2ccco2)cc1 | 3.81 | 14.2 | 25 | 10
32 | CC(C)=CCN1CCC(C(=O)Nc2ccc(-c3nc4ccccc4[nH]3)cc2)CC1 | 17 | 0.051 | 1.04 | 5.5
33 | O=C1c2ccc3c4c(ccc(c24)C(=O)N1CCCCO)C(=O)N(CCCCO)C3=O | 0.53 | 0.67 | 3.34 | 0.6
34 | CCOc1ccc(CCNC(=O)c2cccs2)cc1OCC | 15.3 | 13.9 | > 25 | 25
35 | Cc1cccc(-n2ncc3c(O)nc(-n4nc(C)cc4NC(=O)c4cc5ccccc5o4)nc32)c1 | 0.073 | 0.47 | 0.41 | 4.48
36 | Oc1c(C(Nc2ccccn2)c2cccc(Oc3ccccc3)c2)ccc2cccnc12 (stereo not drawn) | 10 | 12.6 | 3.34 | 6.72
37 | CCOc1ccc2c(c1)CN(Cc1ccc(Cl)cc1)CO2 | 10.7 | 7.54 | 13.3 | 0.26
38 | COc1ccc2nc(C)cc(Nc3cccc(O)c3)c2c1 | > 25 | 4.19 | 25 | 13.4
39 | CCCC(c1nnnn1C1CCCCC1)N1CCN(C(=O)c2ccco2)CC1 (stereo not drawn) | 0.13 | 0.219 | 0.083 | 0.059
40 | COc1ccc(CNC2CCN(c3ccc(NC(=O)c4cccc(Cl)c4)cc3)CC2)cc1OC | 12.4 | 0.309 | 0.85 | 0.1
41 | COc1ccc(Nc2nc(NCc3ccccc3)c3ccccc3n2)cc1 | 3.7 | 4.77 | 2.16 | 0.06
42 | O=C(Nc1ccccc1O)c1ccc(-c2ccc(Cl)cc2Cl)o1 | 6.51 | 12.5 | 19 | 4.65

Row | Compound | IC50 [1] [µM] | IC50 [2] [µM] | IC50 [3] [µM] | IC50 [4] [µM]
43 | CCN(CC)CCNc1ccnc2cc3ccccc3cc12 | 5.09 | 5.69 | 3.25 | 7.72
44 | Cn1c(=O)c2cc(C(=O)NCCCN3CCCCCC3)sc2c2ccccc21 | 13.9 | 5.35 | 8.03 | 10
45 | COc1ccc(CCN2C(=O)c3[nH]nc(-c4cc(Cl)c(C)cc4O)c3C2c2ccccc2F)cc1 (stereo not drawn) | 9.01 | 7.65 | 0.63 | 5.9
46 | CCN1CCN(c2cc(C)c3cc(NC(=O)c4ccc(OC)c(OC)c4)ccc3n2)CC1 | 5.93 | 0.33 | 7.92 | 6.69
47 | Cc1ccc(NC(=O)Nc2cccc(Cl)c2)cc1F | 0.074 | 14.3 | 10 | 11.1
48 | Cc1ccc(Nc2nc(N)c3ccccc3n2)cc1Cl | 10 | 16.5 | 9.87 | 6.31
49 | CC(=O)c1ccc(NC(=O)CSc2nc(-c3ccccc3Cl)ns2)cc1 | 3.34 | 0.65 | 10 | 0.86
50 | COc1cc(CNCCc2ccc(Cl)cc2)cc(OC)c1O | 6.85 | 12.6 | 5.81 | 10
51 | CCOc1cc(CNC(C)C(O)c2ccccc2)cc(Cl)c1OCC (stereo not drawn) | 7.96 | 5.64 | 0.91 | 0.081
52 | O=c1nc(C=Cc2ccc(Cl)cc2)oc2ccccc12 | 11.5 | 8.25 | > 25 | 14.3
53 | CN(C)c1ccc(N2C(N)=NC(N)=NC2(C)C)cc1 | 5.06 | 10.1 | 12.9 | 1
54 | Oc1ccccc1CN1CCN(C(c2ccccc2)c2ccccc2)CC1 | 3.72 | 4.37 | 25 | 15.3
55 | N=c1c2ccccc2nnn1-c1cccc(C(F)(F)F)c1 | 18.1 | 9.18 | 19.1 | 15
56 | O=c1nc(C=Cc2ccc(Br)cc2)oc2ccccc12 | 13.6 | 14.3 | 10 | 15.3
57 | COc1ccc(C2Sc3ccccc3N=C3C2=C(O)c2ccccc23)cc1 (stereo not drawn) | 7.09 | 15.8 | 4.09 | 13.9
58 | CN(C)c1ccc(-c2nc3cc(N)ccc3[nH]2)cc1 | 7.59 | 3.61 | 1.04 | 0.083
59 | FC(F)(F)c1cccc(CNC2CCN(CCc3ccccc3)CC2)c1 | 5.35 | 1.87 | 0.36 | 15.6
60 | CC1CC2=C(CC1CNCCCN(C)C)C(C)(C)CCC2 (stereo not drawn) | 5.9 | 0.13 | 2.12 | 0.58
61 | COc1ccc2nc(C)cc(Nc3ccccc3O)c2c1 | 1 | 8.83 | 15.3 | 25
62 | O=C(Nc1ccc(Cl)c(Cl)c1)Nc1ccc(Cl)c(Cl)c1 | 4.91 | 0.21 | 2.95 | 0.59
